Experimental data reported in ChEMBL document CHEMBL4364286, “Structure-Guided Design, Synthesis, and Biological Evaluation of (2-(1H-Indol-3-yl)-1H-imidazol-4-yl)(3,4,5-trimethoxyphenyl) Methanone (ABI-231) Analogues Targeting the Colchicine Binding Site in Tubulin” (J Med Chem, 2019).
Calls of active or inactive are those of the source. No cut-off for these calls is given here.

What was measured:
A-375 [1] = experiment: Antiproliferative activity against human A375 cells after 72 hrs by MTT assay; type: functional, cell-based; details: A-375, 72 h
M14 = experiment: Antiproliferative activity against human M14 cells after 72 hrs by MTT assay; type: functional, cell-based; details: M14, 72 h
WM164 = experiment: Antiproliferative activity against human WM164 cells after 72 hrs by MTT assay; type: functional, cell-based; details: WM164, 72 h
A-375 [2] = experiment: Inhibition of anchorage-dependent colony formation in human A375 cells assessed as decrease in colony number at 5 nM after 12 days by crystal violet-staining based assay relative to control; type: functional; details: A-375, 288 h
A-375 [3] = experiment: Antimigratory activity in human A375 cells assessed as wound closure at 5 nM after 22 hrs by scratch migration assay (reference value: 60.7 +/- 3.5%); type: functional
A-375 [4] = experiment: Antimigratory activity in human A375 cells assessed as wound closure at 25 nM after 22 hrs by scratch migration assay (reference value: 60.7 +/- 3.5%); type: functional
RPMI-7951 = experiment: Antimigratory activity in human RPMI7951 cells assessed as wound closure at 25 nM after 18 hrs by scratch migration assay (reference value: 71.8 +/- 1.8%); type: functional
PC-3 [5] = experiment: Antiproliferative activity against human PC3 cells; type: functional, cell-based
[6] = Antiproliferative activity against human PC3-TxR cells; type: functional, cell-based
[7] = Resistance index, ratio of IC50 for human PC3-TxR cells to IC50 for human PC3 cells; type: functional
DU-145 = experiment: Antiproliferative activity against human DU145 cells; type: functional, cell-based
[8] = Antiproliferative activity against human DU145-TxR cells; type: functional, cell-based
[9] = Resistance index, ratio of IC50 for human DU145-TxR cells to IC50 for human DU145 cells; type: functional
A-375 [10] = experiment: Antitumor activity against human A375 cells xenografted in nude mouse assessed as tumor growth inhibition at 15 mg/kg, ip administered once daily for 14 days and measured after 20 days by caliper method relative to control; type: functional; details: A-375, ip, read-out: TGI
PC-3 [11] = experiment: Antitumor activity against human PC3 cells xenografted in nude mouse assessed as tumor growth inhibition at 15 mg/kg administered every other day for 3 weeks relative to control; type: functional; details: PC-3, 504 h, read-out: TGI
[12] = Antitumor activity against human PC3-TxR cells xenografted in nude mouse assessed as tumor growth inhibition at 15 mg/kg administered every other day for 3 weeks relative to control; type: functional; details: 504 h, read-out: TGI
[13] = Antitumor activity against human PC3-TxR cells xenografted in nude mouse assessed as reduction in tumor weight at 15 mg/kg administered every other day for 3 weeks relative to control; type: functional; set-up: scale not given: the % may be the effect or the level left
Tubulin (Bos taurus) [14] = target: T1, Tubulin (Bos taurus) (UniProt Q6B856+Q862L2+Q862F3); experiment: Inhibition of bovine brain tubulin polymerization at 10 uM measured at time interval of 1 mins for 20 mins by spectrophotometric analysis
Tubulin (Homo sapiens) [15] = target: T2, Tubulin (Homo sapiens) (UniProt P68371+Q9H4B7+P0DPH7+P68366+Q13509+Q71U36+P04350+Q3ZCM7+P07437+P68363+Q9BQE3+Q6PEY2+Q13885+Q9BVA1+Q9BUF5); experiment: Disruption of microtubule network in human WM164 cells assessed as microtubule fragmentation at 100 nM after 18 hrs by DAPI staining based fluorescence confocal microscopic method; type: cell-based
Tubulin (Homo sapiens) [16] = target: T2, Tubulin (Homo sapiens); experiment: Disruption of microtubule network in human WM164 cells assessed as microtubule disassembly at 100 nM after 18 hrs by DAPI staining based fluorescence confocal microscopic method; type: cell-based
[17] = Half-life in CD-1 mouse liver microsomes in presence of NADPH regenerating system measured up to 4 hrs by UPLC-MS analysis; type: ADME, Microsome
[18] = Intrinsic clearance in CD-1 mouse liver microsomes in presence of NADPH regenerating system measured up to 4 hrs by UPLC-MS analysis; type: ADME, Microsome; details: read-out: CLH
[19] = Half-life in rat liver microsomes pre-incubated for 15 mins followed by addition of NADPH regenerating system by LC-MS analysis; type: ADME, Microsome
[20] = Intrinsic clearance in rat liver microsomes pre-incubated for 15 mins followed by addition of NADPH regenerating system by LC-MS analysis; type: ADME, Microsome; details: read-out: CLH
[21] = Half-life in human liver microsomes in presence of NADPH regenerating system; type: ADME, Microsome
[22] = Intrinsic clearance in human liver microsomes in presence of NADPH regenerating system; type: ADME, Microsome; details: read-out: CLH
Tubulin (Bos taurus) [23] = target: T1, Tubulin (Bos taurus); experiment: Induction of bovine brain tubulin polymerization at 10 uM measured at time interval of 1 mins for 20 mins by spectrophotometric analysis
Tubulin (Homo sapiens) [24] = target: T2, Tubulin (Homo sapiens); experiment: Effect on microtubule network in human WM164 cells assessed as induction of polymerization at 100 nM after 18 hrs by DAPI staining based fluorescence confocal microscopic method; type: cell-based
Tubulin (Homo sapiens) [25] = target: T2, Tubulin (Homo sapiens); experiment: Effect on microtubule network in human WM164 cells assessed as formation of dense and aggregated bundles of microtubules at 100 nM after 18 hrs by DAPI staining based fluorescence confocal microscopic method; type: cell-based

Row | SMILES | IC50 (A-375 [1]; read-out: IC50) [nM] | IC50 (M14) [nM] | IC50 (WM164) [nM] | other results
1 | COc1cc(C(=O)c2c[nH]c(-c3c[nH]c4ccc(C)cc34)n2)cc(OC)c1OC | 278 | 177 | 552 | –
2 | COc1cc2c(c(OC)c1OC)-c1ccc(OC)c(=O)cc1[C@@H](NC(C)=O)CC2 [COLCHICINE] | – | 16.6 | 10.8 | IC50 (A-375 [1]): 14.1 nM; inhibition at 0.005 µM (A-375 [2]): 24.7%; Activity (A-375 [3]): 46%; Activity (A-375 [4]): 20.7%; Activity (RPMI-7951): 42.8%; IC50 (PC-3 [5]): 10.4 nM; IC50 [6]: 37.4 nM; Ratio IC50 [7]: 3.6; IC50 (DU-145): 35.5 nM; IC50 [8]: > 1000 nM; Ratio IC50 [9]: >28
3 | COc1cc(C(=O)c2c[nH]c(-c3ccc4[nH]ccc4c3)n2)cc(OC)c1OC | 8.6 | 18.5 | 6.1 | –
4 | COc1cc(C(=O)c2c[nH]c(-c3cccc4cc[nH]c34)n2)cc(OC)c1OC | 286 | 241 | 436 | –
5 | COc1cc(C(=O)c2c[nH]c(-c3c[nH]c4c(C)cccc34)n2)cc(OC)c1OC | 13.1 | 10.8 | 61.3 | –
6 | COc1cc(C(=O)c2c[nH]c(-c3c[nH]c4ccc(O)cc34)n2)cc(OC)c1OC | > 1000 | > 1000 | > 1000 | –
7 | COc1cc(C(=O)c2c[nH]c(-c3c[nH]c4cc(O)ccc34)n2)cc(OC)c1OC | > 1000 | > 1000 | > 1000 | –
8 | COc1cc(C(=O)c2c[nH]c(-c3c[nH]c4ccc(F)cc34)n2)cc(OC)c1OC | 19.2 | 18 | 80.9 | –
9 | COc1cc(C(=O)c2c[nH]c(-c3c[nH]c4cc(C)ccc34)n2)cc(OC)c1OC | 21.1 | 21.7 | 23.7 | –
10 | COc1cc(C(=O)c2c[nH]c(-c3c[nH]c4cc(Br)ccc34)n2)cc(OC)c1OC | 67.8 | 41.2 | 55.4 | –
11 | COc1cc(C(=O)c2c[nH]c(-c3c(-c4ccccc4)[nH]c4ccccc34)n2)cc(OC)c1OC | > 1000 | > 1000 | > 1000 | –
12 | COc1cc(C(=O)c2c[nH]c(-c3c[nH]c4cccc(OCc5ccccc5)c34)n2)cc(OC)c1OC | > 1000 | > 1000 | > 1000 | –
13 | COc1cc(C(=O)c2c[nH]c(-c3c[nH]c4cccc(OC)c34)n2)cc(OC)c1OC | > 1000 | > 1000 | > 1000 | –
14 | COC(=O)c1ccc2c(-c3nc(C(=O)c4cc(OC)c(OC)c(OC)c4)c[nH]3)c[nH]c2c1 | > 1000 | > 1000 | > 1000 | –
15 | COc1cc(C(=O)c2c[nH]c(-c3c[nH]c4ccc(Cl)cc34)n2)cc(OC)c1OC | 61.8 | 64.9 | 160 | –
16 | COc1cc(C(=O)c2c[nH]c(-c3c[nH]c4c(OC)cccc34)n2)cc(OC)c1OC | 38.3 | 34.1 | 115 | –
17 | COc1cc(C(=O)c2c[nH]c(-c3c[nH]c4c(OCc5ccccc5)cccc34)n2)cc(OC)c1OC | > 1000 | > 1000 | > 1000 | –
18 | COc1cc(C(=O)c2c[nH]c(-c3c[nH]c4ccc(OCc5ccccc5)cc34)n2)cc(OC)c1OC | > 1000 | > 1000 | > 1000 | –
19 | CC(=O)O[C@H]1C(=O)[C@@]2(C)[C@H]([C@H](OC(=O)c3ccccc3)[C@]3(O)C[C@H](OC(=O)[C@H](O)[C@@H](NC(=O)c4ccccc4)c4ccccc4)C(C)=C1C3(C)C)[C@]1(OC(C)=O)CO[C@@H]1C[C@@H]2O [PACLITAXEL] | – | – | – | inhibition in vivo at 15 mg/kg (A-375 [10]): 68.6%; IC50 [8]: > 1000 nM; inhibition in vivo at 15 mg/kg (PC-3 [11]): 101%; inhibition in vivo at 15 mg/kg [12]: 37.8%; Activity [13]: 34.5%
20 | COc1cc(C(=O)c2c[nH]c(-c3c[nH]c4cc(F)ccc34)n2)cc(OC)c1OC | 17.5 | 5.8 | 10.3 | –
21 | COc1cc(C(=O)c2c[nH]c(-c3c[nH]c4cccc(Br)c34)n2)cc(OC)c1OC | 13.8 | 10.4 | 67.1 | –
22 | COc1cc(C(=O)c2c[nH]c(-c3c[nH]c4cc(OCc5ccccc5)ccc34)n2)cc(OC)c1OC | > 1000 | > 1000 | > 1000 | –
23 | COc1cc(C(=O)c2c[nH]c(-c3c[nH]c4cccc(C)c34)n2)cc(OC)c1OC | 1.8 | 1.7 | 3.2 | inhibition (Tubulin (Bos taurus) [14]): Active; Activity (Tubulin (Homo sapiens) [15]): Active; Activity (Tubulin (Homo sapiens) [16]): Active; inhibition at 0.005 µM (A-375 [2]): 59%; Activity (A-375 [3]): 48.5%; Activity (A-375 [4]): 25.9%; Activity (RPMI-7951): 35.6%; half-life [17]: 2.42 h; CLint scaled [18]: 23.6 mL/min/kg; half-life [19]: 1.8 h; CLint scaled [20]: 26 mL/min/kg; half-life [21]: 6.7 h; CLint scaled [22]: 3.1 mL/min/kg; IC50 (PC-3 [5]): 5.2 nM; IC50 [6]: 3.9 nM; Ratio IC50 [7]: 0.8; IC50 (DU-145): 13.8 nM; IC50 [8]: 25.2 nM; Ratio IC50 [9]: 1.8
24 | COc1ccc2c(-c3nc(C(=O)c4cc(OC)c(OC)c(OC)c4)c[nH]3)c[nH]c2c1 | 793 | > 1000 | > 1000 | –
25 | COc1cc(C(=O)c2c[nH]c(-c3c[nH]c4cccc(F)c34)n2)cc(OC)c1OC | 7.2 | 8.2 | – | –
26 | CC(=O)O[C@@]12CO[C@@H]1C[C@H](O)[C@@]1(C)C(=O)[C@H](O)C3=C(C)[C@@H](OC(=O)[C@H](O)[C@@H](NC(=O)OC(C)(C)C)c4ccccc4)C[C@@](O)([C@@H](OC(=O)c4ccccc4)[C@H]21)C3(C)C [DOCETAXEL ANHYDROUS] | – | – | – | IC50 [8]: 352 nM; Ratio IC50 [9]: >3523; Activity (Tubulin (Bos taurus) [23]): Active; Activity (Tubulin (Homo sapiens) [24]): Active; Activity (Tubulin (Homo sapiens) [25]): Active
27 | COc1cc(C(=O)c2c[nH]c(-c3ccc4cc[nH]c4c3)n2)cc(OC)c1OC | 8 | 6.1 | 3.8 | half-life [17]: 5.56 h; CLint scaled [18]: 10.3 mL/min/kg; half-life [19]: 15.2 h; CLint scaled [20]: 3.1 mL/min/kg; half-life [21]: 7.61 h; CLint scaled [22]: 2.73 mL/min/kg
28 | COc1cc(C(=O)c2c[nH]c(-c3c[nH]c4ccc(Br)cc34)n2)cc(OC)c1OC | 164 | 104 | 442 | –
